According to patent US4088778A, “Method for the treatment of hypertension” (priority 1975, dated 1978):

Legend:
[1] = Hypotensive effect on experimental hypertension caused by DOCA; type: in vivo, male wistar rats
Description: (A) Hypotensive effect on experimental hypertension caused by administration of desoxycorticosterone (hereinafter referred to as "DOCA"):
Right kidneys were removed from 6-week-old male wistar rats, and a 1% aqueous solution of sodium chloride was given as drinking water and 12.5 mg/Kg of DOCA was intramuscularly injected every week. The change of the blood pressure was examined over a period of 6 weeks.
48 rats, each having one kidney removed, were divided into 6 groups, each consisting of 8 rats, and each group was placed in a cage. With respect to each group, a gum arabic solution was administered to 2 rats as non-administered control animals. 20 mg/Kg of TN was administered once a day to each of two rats among the remaining 6 rats, and 100 mg/Kg of TN was administered once a day to each of two rats among the remaining 4 rats. 88 mg/Kg of TA was administered once a day to each of the remaining two rats. TN and TA were administered in the form of a suspension in gum arabic. The blood pressure was measured by a Shimazu type systolic pressure continuous recording apparatus detecting pulse waves of rats taken in a thermostat fixed box maintained at 30° C.

Solubility = type: physicochemical

SMILES: Cc1c(C)c2c(c(C)c1OC(=O)c1cccnc1)CCC(C)(CCCC(C)CCCC(C)CCCC(C)C)O2 (racemic) [TN, dl-α-tocopheryl nicotinate]
- number of rats with blood pressure elevated to 170 mm Hg or higher ([1]; 20 mg/kg of TN once a day, among 10 rats (control 9 among 11)): 5 rats
- effect on increase of the blood pressure ([1]; 100 mg/kg of TN): especially conspicuous
- number of rats with blood pressure elevated to 170 mm Hg or higher ([1]; 100 mg/kg of TN once a day, among 12 rats (control 9 among 11)): 3 rats
- hypotensive effect, overall conclusion from pharmacological tests on animals ([1]; DOCA rats, old SHR, young SHR): have a hypotensive effect
- solubility in organic solvents (Solubility): easily soluble in acetone, benzene, chloroform, ether and ethanol
- solubility in water (Solubility): hardly soluble in water
